# In the supplement of paper PMC4862054:
# Where “and” joins values, the source holds several entries; their conditions need not be identical. Identical values can stand only once.
# Key:
# Conditions in all cases: incubation time: 72 h
# SK-BR-3 = test: drug sensitivity score (DSS), CellTiter-Blue viability (DSS (AUC-based score)); higher = stronger viability inhibition; extreme values may be limits of the assay
# Description: (§1)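 DSRT with the CellTiter-Blue (resazurin reduction) viability readout, fluorescence 560/590 nm, 72 h incubation. Plates were normalised to DMSO and benzethonium chloride controls. DSS is computed from the area under the fitted dose-response curve (5 or 9 concentrations).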
# CAL-120 [1] = test: as above
# Description: as §1
# Hs578T [2] = test: as above
# Description: as §1
# MDA-MB-468 [3] = test: as above
# Description: as §1
# HCC1937 [4] = test: as above
# Description: as §1
# CAL-85-1 [5] = test: as above
# Description: as §1
# HCC1143 [6] = test: as above
# Description: as §1
# CAL-51 [7] = test: as above
# Description: as §1
# MDA-MB-453 = test: drug sensitivity score (DSS), CellTox Green (DSS (AUC-based score)); higher = stronger drug effect (viability inhibition or cytotoxicity); extreme values may be limits of the assay
# How it was run: (§2)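 Each compound occupied 5 concentrations in 10-fold steps over its own 10,000-fold range in 384-well plates, into which breast cancer cell lines were seeded as 20 µl suspension. Following 72 h of incubation, CellTox Green fluorescence (485/520 nm) was measured, and CellTiter-Glo luminescence was measured after 10 min at room temperature. Plates were individually normalised to 0.1 % DMSO and a positive kill control. From the area under the fitted dose-response curve, a drug sensitivity score was calculated.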
# DU-4475 = test: as above
# How it was run: as §2
# MDA-MB-436 = test: as above
# How it was run: as §2
# CAL-120 [8] = test: as above
# How it was run: as §2
# MFM-223 = test: as above
# How it was run: as §2
# HCC1599 = test: as above
# How it was run: as §2
# Hs578T [9] = test: as above
# How it was run: as §2
# MDA-MB-468 [10] = test: as above
# How it was run: as §2
# BT-474 = test: as above
# How it was run: as §2
# MCF-10A = test: as above
# How it was run: as §2
# HCC1937 [11] = test: as above
# How it was run: as §2
# CAL-85-1 [12] = test: as above
# How it was run: as §2
# HCC1143 [13] = test: as above
# How it was run: as §2
# MDA-MB-231 = test: as above
# How it was run: as §2
# HDQ-P1 = test: as above
# How it was run: as §2
# CAL-148 = test: as above
# How it was run: as §2
# BT-549 = test: as above
# How it was run: as §2
# CAL-51 [14] = test: as above
# How it was run: as §2
Structure (SMILES),drug sensitivity score (SK-BR-3),drug sensitivity score (CAL-120 [1]),drug sensitivity score (Hs578T [2]),drug sensitivity score (MDA-MB-468 [3]),drug sensitivity score (HCC1937 [4]),drug sensitivity score (CAL-85-1 [5]),drug sensitivity score (HCC1143 [6]),drug sensitivity score (CAL-51 [7]),drug sensitivity score (MDA-MB-453),drug sensitivity score (DU-4475),drug sensitivity score (MDA-MB-436),drug sensitivity score (CAL-120 [8]),drug sensitivity score (MFM-223),drug sensitivity score (HCC1599),drug sensitivity score (Hs578T [9]),drug sensitivity score (MDA-MB-468 [10]),drug sensitivity score (BT-474),drug sensitivity score (MCF-10A),drug sensitivity score (HCC1937 [11]),drug sensitivity score (CAL-85-1 [12]),drug sensitivity score (HCC1143 [13]),drug sensitivity score (MDA-MB-231),drug sensitivity score (HDQ-P1),drug sensitivity score (CAL-148),drug sensitivity score (BT-549),drug sensitivity score (CAL-51 [14])
COc1ncc(-c2ccc3nccc(-c4ccnnc4)c3c2)cc1NS(=O)(=O)c1ccc(F)cc1F,25,16.3,15.1,14.2,12.3,16.8,14.6,21.4,0,0,0,0,3.89,0,3.92,9.19,6.83,0.561,5.84,0,0,3.08,0,6.5,0,6.6
COc1cc(Nc2ncc(F)c(Nc3ccc4c(n3)NC(=O)C(C)(C)O4)n2)cc(OC)c1OC [R406],0,0,0,0,0,0,0,0,,,,,,,,,,,,,,,,,,
CS(=O)(=O)CCNCc1ccc(-c2ccc3ncnc(Nc4ccc(OCc5cccc(F)c5)c(Cl)c4)c3c2)o1 [Lapatinib],25.7 and 24.2,,3.66 and 4.18,8.9 and 8.18,,6.56 and 6.25,0,0,1.15,0,0,0,0,0,0,0,0,2.1,2.25,0,0,1.62,0,2.94,0,0
c1ccc(C2CN3CCSC3=N2)cc1 (centres undefined) [Tetramisole],0,0,0,0,0,0,0,0,,,,,,,,,,,,,,,,,,
Cn1c(=O)c(F)c(Nc2ccc(I)cc2F)c2c(=O)n(C[C@@H](O)CO)cnc21 [TAK-733],0,4.61,1.73,0,0,7.69,8.4,3.52,0,4.73,0,0.284,0,0,,0,0,0,0,5.06,0,5.12,0,0,0,0
O=c1[nH]c(=O)n([C@H]2C[C@H](O)[C@@H](CO)O2)cc1F [Floxuridine],17.9,19.1,9.02,17.8,3.61,14,3.31,21.3,0,0,0,0,,0,0,0,0,0,0,4.11,0,0,1.01,0,0,5.94
CN(c1ccccc1CNc1nc(Nc2ccc3c(c2)CC(=O)N3)ncc1C(F)(F)F)S(C)(=O)=O,,,,,,,,,0,0,0,0,0,1.23,10.4,0,0,9.63,0,3.86,5.18,8.46,9.69,0,0.974,17.6
CC(C)(C)c1cc(NC(=O)Nc2ccc(-c3cn4c(n3)sc3cc(OCCN5CCOCC5)ccc34)cc2)no1 [Quizartinib],0,0,0,0,0,0,0,0,0,0,,0,0,0,3.83,0,0,0,0,0,0,0,0,0,0,0
Cc1cc(C(C)Nc2ccccc2)c2nc(N3CCOCC3)cc(=O)n2c1 (centres undefined) [TGX-221],,,,,,,,,0,0,0,0,0,0,,0,0,1.09,0,0,0,0.585,11.9,0,0,0
COc1cc(Nc2ncc(F)c(Nc3ccc4c(n3)NC(=O)C(C)(C)O4)n2)cc(OC)c1OC [Tamatinib],,,,,,,,,0,0,0,0,0,0,0,,0,0,0,0,0,0,0,0,0,1.13
FC(F)c1nc2ccccc2n1-c1nc(N2CCOCC2)nc(N2CCOCC2)n1 [ZSTK474],,,,,,,,,0,0,0,0,3.44,0,0,0,0.64,0,0,0,0,0,0,0,0,0
C[C@@H]1CCN(C(=O)CC#N)C[C@@H]1N(C)c1ncnc2[nH]ccc12 [Tofacitinib],,,,,,,,,0,0,0,0,0,0,0,0,0,0,0,0,0,0,0,0,0,0
O=P(O)(NCCCl)NCCCl [Ifosfamide mustard],0,0,0,0,0,0,0,0,,,,,,,,,,,,,,,,,,
Cn1cnc2c(F)c(Nc3ccc(Br)cc3F)c(C(=O)NOCCO)cc21 [MEK-162],0,0,0,0,0,0,7.86,0.246,0,1.92,0,0,3.03,0,0,0,0,0,,0,0,,1.87,1.61,0,0
O=c1[nH]cc(F)c(=O)[nH]1 [Fluorouracil],8.26,2.97,0,0.272,0,5.28,0,1.79,0,0,0.291,0,0,0,0,,0,0,0,0,0,0,0,0,0,0
Nc1nccc(-c2c(-c3ccc(F)cc3)ncn2C2CCCCC2)n1,,,,,,,,,0,0,0,0,0,0,0,0,0,3.55,0,0,0,0,0,0,0,0
CCS(=O)(=O)c1cccc(-c2cc(C(=O)NC3CCN(C)CC3)c(C)c3[nH]c4ncc(C)cc4c23)c1 [TAK-901],0,10,6.31,0.762,6.44,5.05,8.44,8.9,0,0,0,0,0,0,0,0,0,0,0,0,0,3.45,0,0,0.958,
